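A five-concentration, 48-hour dose response in 96-well plates underlies each endpoint, interpolated linearly between surrounding concentrations. GI50 marks 50% less growth.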 Activity calls are given as the source filed them. Rule as the data show it: active = GI50 up to about 1.1 µM and inactive = higher.
Experiments:
Assay in all cases: NCI tumour cell line growth inhibition, 48 h
[1] = tested on: SR
[2] = tested on: MCF7
[3] = tested on: NCI/ADR-RES
[4] = tested on: SF-539
[5] = tested on: NCI-H460
[6] = tested on: RXF 393
[7] = tested on: HT-29
[8] = tested on: U-251
[9] = tested on: UACC-257
[10] = tested on: PC-3
[11] = tested on: SK-OV-3
[12] = tested on: TK-10
[13] = tested on: SNB-75
[14] = tested on: Malme-3M
[15] = tested on: SNB-19
[16] = tested on: HL-60
[17] = tested on: MDA-N
[18] = tested on: NCI-H226
[19] = tested on: BT-549
[20] = tested on: RPMI-8226
[21] = tested on: M14
[22] = tested on: SK-MEL-5
[23] = tested on: K562
[24] = tested on: SF-295
[25] = tested on: EKVX
[26] = tested on: SF-268
[27] = tested on: CCRF-CEM
[28] = tested on: COLO 205
[29] = tested on: OVCAR-4
[30] = tested on: KM12
[31] = tested on: ACHN
[32] = tested on: SN12C
[33] = tested on: A549
[34] = tested on: A498
[35] = tested on: OVCAR-3
[36] = tested on: MDA-MB-435
[37] = tested on: LOX IMVI
[38] = tested on: SW-620
[39] = tested on: SK-MEL-2
[40] = tested on: HCT-116
[41] = tested on: NCI-H522
[42] = tested on: 786-0
[43] = tested on: OVCAR-5
[44] = tested on: CAKI-1
[45] = tested on: SK-MEL-28
[46] = tested on: HOP-62
[47] = tested on: T47D
[48] = tested on: NCI-H23
[49] = tested on: Hs-578T
[50] = tested on: IGROV-1
[51] = tested on: HCT-15
[52] = tested on: MOLT-4
[53] = tested on: MDA-MB-231
[54] = tested on: OVCAR-8
[55] = tested on: DU-145
[56] = tested on: HOP-92
[57] = tested on: UACC-62
[58] = tested on: UO-31
[59] = tested on: HCC 2998

In the case of O=C1C(c2c(O)[nH]c3ccc(Cl)cc23)=Nc2ccccc21, the GI50 [1] is reported as 9.02 µM (inactive), the GI50 [2] is reported as 12.2 µM (inactive) and the GI50 [3] is reported as 7.91 µM (inactive). For the same compound, the GI50 [4] was 4.65 µM (inactive), the GI50 [5] was 12.1 µM (inactive) and the GI50 [6] was 2.49 µM (inactive). The GI50 [7] was 5.09 µM (inactive), the GI50 [8] was 4.98 µM (inactive) and the GI50 [9] was > 53.5 µM (inactive). For the same compound, the GI50 [10] was 3.28 µM (inactive), the GI50 [11] was 3.08 µM (inactive) and the GI50 [12] was 4.23 µM (inactive). For the same compound, the GI50 [13] was 4.99 µM (inactive), the GI50 [14] was 5.68 µM (inactive) and the GI50 [15] was 10.3 µM (inactive). For the same compound, the GI50 [16] was 28.8 µM (inactive), the GI50 [17] was 6.38 µM (inactive) and the GI50 [18] was 6.05 µM (inactive). The GI50 [19] was 66.4 µM (inactive), the GI50 [20] was 5.09 µM (inactive) and the GI50 [21] was 6.85 µM (inactive). The GI50 [22] was 3.18 µM (inactive), the GI50 [23] was 7.71 µM (inactive) and the GI50 [24] was 10.4 µM (inactive). The GI50 [25] was 5.07 µM (inactive), the GI50 [26] was 5.36 µM (inactive) and the GI50 [27] was 27.4 µM (inactive). The GI50 [28] was 20 µM (inactive), the GI50 [29] was 2.2 µM (inactive) and the GI50 [30] was 3.08 µM (inactive). The GI50 [31] was 3.86 µM (inactive), the GI50 [32] was 17 µM (inactive) and the GI50 [33] was 3.58 µM (inactive). For the same compound, the GI50 [34] was 5.01 µM (inactive), the GI50 [35] was 3.66 µM (inactive) and the GI50 [36] was 4.3 µM (inactive). For the same compound, the GI50 [37] was 3.66 µM (inactive), the GI50 [38] was 25.4 µM (inactive) and the GI50 [39] was 5.55 µM (inactive). The GI50 [40] was 1.98 µM (inactive), the GI50 [41] was 10.6 µM (inactive) and the GI50 [42] was 1.99 µM (inactive). The GI50 [43] was 8.11 µM (inactive), the GI50 [44] was 3.83 µM (inactive) and the GI50 [45] was > 100 µM (inactive). For the same compound, the GI50 [46] was 5.58 µM (inactive), the GI50 [47] was 3.7 µM (inactive) and the GI50 [48] was 9.12 µM (inactive). The GI50 [49] was 3.43 µM (inactive), the GI50 [50] was 0.352 µM (active) and the GI50 [51] was 7.73 µM. The GI50 [52] was > 47 µM (inactive), the GI50 [53] was 2.51 µM (inactive) and the GI50 [54] was 4.09 µM (inactive). The GI50 [55] was 2.81 µM (inactive), the GI50 [56] was 8.02 µM (inactive) and the GI50 [57] was 11.8 µM (inactive).
For C=CCSC1=N/C(=C\c2ccc(Cl)cc2)C(=O)N1CC=C, the GI50 [1] was 27.4 µM (inactive), the GI50 [58] was 34.7 µM (inactive) and the GI50 [2] was 18.9 µM (inactive). The GI50 [3] was 34 µM (inactive), the GI50 [4] was 28.8 µM (inactive) and the GI50 [5] was 43.7 µM (inactive). The GI50 [6] was 19.8 µM (inactive), the GI50 [7] was 30.5 µM (inactive) and the GI50 [8] was 22 µM (inactive). The GI50 [9] was 26.4 µM (inactive), the GI50 [10] was 20 µM (inactive) and the GI50 [11] was 42.8 µM (inactive). For the same compound, the GI50 [12] was 55.7 µM (inactive), the GI50 [15] was 91.4 µM (inactive) and the GI50 [16] was 9.35 µM (inactive). The GI50 [17] was 32.7 µM (inactive), the GI50 [19] was 23.5 µM (inactive) and the GI50 [20] was 17.4 µM (inactive). The GI50 [21] was 66.2 µM (inactive), the GI50 [22] was 16.1 µM (inactive) and the GI50 [23] was 29.5 µM (inactive). The GI50 [24] was 34.8 µM (inactive), the GI50 [25] was 17.1 µM (inactive) and the GI50 [26] was 40.6 µM (inactive). For the same compound, the GI50 [27] was 21.4 µM (inactive), the GI50 [28] was 33.3 µM (inactive) and the GI50 [29] was 21.5 µM (inactive). The GI50 [30] was 24.9 µM (inactive), the GI50 [31] was 32.6 µM (inactive) and the GI50 [32] was 34.3 µM (inactive). The GI50 [33] was 32.7 µM (inactive), the GI50 [34] was 13.6 µM (inactive) and the GI50 [35] was 43.7 µM (inactive). The GI50 [36] was 28.8 µM (inactive), the GI50 [37] was 42.9 µM (inactive) and the GI50 [38] was 30.3 µM (inactive). The GI50 [39] was 27.7 µM (inactive), the GI50 [40] was 25.1 µM (inactive) and the GI50 [41] was 23 µM (inactive). The GI50 [42] was 35.7 µM (inactive), the GI50 [43] was 63.8 µM (inactive) and the GI50 [44] was 37 µM (inactive). For the same compound, the GI50 [45] was 50.2 µM (inactive), the GI50 [46] was 41.9 µM (inactive) and the GI50 [47] was 23.4 µM (inactive). For the same compound, the GI50 [59] was 34.8 µM (inactive), the GI50 [48] was 24.6 µM (inactive) and the GI50 [49] was 68.7 µM (inactive). The GI50 [50] was 53.8 µM (inactive), the GI50 [51] was 28.2 µM and the GI50 [53] was 30.2 µM (inactive). The GI50 [54] was 47.2 µM (inactive), the GI50 [55] was 20.5 µM (inactive) and the GI50 [56] was 22.1 µM (inactive). The GI50 [57] was 30.2 µM (inactive).
With C=C1CC2(C)CCC(OC(=O)C3(C)OC3C)C(C)(OC(C)=O)C2CC1=C(C)C (stereo not given) the GI50 [1] was > 100 µM (inactive), the GI50 [58] was > 100 µM (inactive) and the GI50 [2] was > 100 µM (inactive). For the same compound, the GI50 [3] was > 100 µM (inactive), the GI50 [4] was > 100 µM (inactive) and the GI50 [5] was > 100 µM (inactive). The GI50 [6] was > 100 µM (inactive), the GI50 [7] was > 100 µM (inactive) and the GI50 [8] was > 100 µM (inactive). The GI50 [9] was > 100 µM (inactive), the GI50 [10] was > 100 µM (inactive) and the GI50 [11] was > 100 µM (inactive). The GI50 [12] was > 100 µM (inactive), the GI50 [13] was > 100 µM (inactive) and the GI50 [14] was > 100 µM (inactive). The GI50 [15] was > 100 µM (inactive), the GI50 [16] was 24.9 µM (inactive) and the GI50 [17] was > 100 µM (inactive). For the same compound, the GI50 [19] was > 100 µM (inactive), the GI50 [20] was > 100 µM (inactive) and the GI50 [21] was > 100 µM (inactive). For the same compound, the GI50 [22] was > 100 µM (inactive), the GI50 [23] was > 100 µM (inactive) and the GI50 [24] was > 100 µM (inactive). For the same compound, the GI50 [25] was > 100 µM (inactive), the GI50 [26] was > 100 µM (inactive) and the GI50 [27] was 96.6 µM (inactive). The GI50 [28] was > 100 µM (inactive), the GI50 [29] was > 100 µM (inactive) and the GI50 [30] was > 100 µM (inactive). For the same compound, the GI50 [31] was > 100 µM (inactive), the GI50 [32] was > 100 µM (inactive) and the GI50 [33] was > 100 µM (inactive). For the same compound, the GI50 [34] was > 100 µM (inactive), the GI50 [35] was > 100 µM (inactive) and the GI50 [36] was > 100 µM (inactive). The GI50 [37] was > 100 µM (inactive), the GI50 [38] was > 100 µM (inactive) and the GI50 [39] was > 100 µM (inactive). The GI50 [40] was > 100 µM (inactive), the GI50 [41] was > 100 µM (inactive) and the GI50 [42] was > 10 µM (inactive). The GI50 [43] was > 100 µM (inactive), the GI50 [44] was > 10 µM (inactive) and the GI50 [45] was > 100 µM (inactive). The GI50 [46] was > 100 µM (inactive), the GI50 [47] was > 100 µM (inactive) and the GI50 [59] was > 100 µM (inactive). The GI50 [48] was > 100 µM (inactive), the GI50 [49] was > 100 µM (inactive) and the GI50 [50] was > 100 µM (inactive). For the same compound, the GI50 [51] was > 100 µM, the GI50 [52] was > 100 µM (inactive) and the GI50 [53] was > 100 µM (inactive). For the same compound, the GI50 [54] was > 100 µM (inactive), the GI50 [55] was > 100 µM (inactive) and the GI50 [56] was > 100 µM (inactive). The GI50 [57] was > 100 µM (inactive).

From ChEMBL document CHEMBL1201862, “PubChem BioAssay data set” (2004)
